Measurements from the NIST ThermoML archive (doi:10.1021/je7005924).

Conditions: Liquid

CCC(=O)C(C)=O [2,3-pentanedione]
Conditions | vapor or sublimation pressure [kPa]
331.84 K | 15.37
338.38 K | 20.36
343.73 K | 25.35
348.13 K | 30.35
352.15 K | 35.34
355.74 K | 40.33
358.85 K | 45.32
361.89 K | 50.21
364.69 K | 55.21
367.09 K | 60.2
369.44 K | 65.19
371.61 K | 70.18
373.8 K | 75.27

CC(=O)C(C)=O [2,3-butanedione]
Conditions | vapor or sublimation pressure [kPa]
314.3 K | 19.06
320.55 K | 24.04
325.62 K | 29.03
329.85 K | 33.91
333.64 K | 39
336.76 K | 43.59
339.99 K | 48.97
342.8 K | 53.85
345.41 K | 58.83
347.62 K | 63.83
349.9 K | 68.81
351.89 K | 73.79

CC(C)=O [acetone]
Conditions | vapor or sublimation pressure [kPa]
297.67 K | 30.23
301.25 K | 35.22
307.33 K | 45.21
310.08 K | 50.4
312.52 K | 55.29
314.76 K | 60.29
316.8 K | 65.08
318.77 K | 70.07
